Experiments:
Type in all cases: cell-based, human
[1] = test system: HCT116 cells; assay: colony formation (clonogenic survival) assay, HCT116 cells
Procedure: For HCT116-derived cells, cells were plated in 6-well plates at 250 cells/well, in triplicate for each drug concentration. Cells were incubated with drugs for 24 h, after which drug-containing medium was replaced with drug-free medium. Seven days later colony counting was performed using a Nikon Eclipse TS100 microscope. For the IR sensitivity test, cells were plated following the same procedure, then irradiated at desired doses and incubated for 7 days before colony counting. Clusters with more than 20 cells were counted as colonies. Mean and standard error of each triplicate was calculated.

[2] = test system: RIF1-BRCA1 proximity in RPE-1 cells; assay: RIF1-BRCA1 proximity ligation assay, RPE-1 cells
Procedure: Proximity ligation assays were performed using the Duolink In Situ PLA Fluorescence Protocol (Sigma-Aldrich, DUO92101) following the manufacturer’s instruction. Cells were grown on glass coverslips and treated as indicated for specific experiments. Cells were then permeabilized with 0.5% TritonX-100 in PBS for 10 min on ice, and fixed with 3% formaldehyde, 2% sucrose in PBS for 10 min at room temperature (RT). After fixation, coverslips were blocked in 3% BSA in PBS for 1 h at RT and incubated with primary antibodies (anti-RIF1, Bethel laboratories A300-568A, 1:1000 dilution; anti-BRCA1, Santa Cruz Biotechnologies, sc-6954, 1:200 dilution), for 1 h at RT in a humidity chamber. Primary antibodies were then washed off with PLA washing buffer A supplied in the Duolink In Situ PLA kit. Coverslips were next incubated sequentially with PLA Probes (1 h at 37 °C), ligation solution (30 min at 37 °C) and amplification solution (100 min at 37 °C), with washes by washing buffer A in between each step. At the end of incubation, coverslips were washed with washing buffer B supplied in the Duolink In Situ PLA kit. Coverslips were then mounted on glass slides with PLA Mounting medium with DAPI. Images were captured by fluorescence microscopy (Zeiss Axio Imager). PLA foci number in each nucleus were analysed by CellProfiler Software[74] with a custom-made pipeline.
For EdU labelling combined with proximity ligation assay, cells were labelled with 10 µM EdU for 15 min, washed free of EdU and next incubated with medium containing 4 mM HU medium for 4 h. Cells were then permeabilized, fixed and subjected to RIF1-BRCA1 PLA procedures. After all PLA steps, EdU detection was performed following manufacturer’s instructions in the Click-iT EdU Imaging Kit (Invitrogen, C10640).
(§1) For proximity ligation assays and immunofluorescence signal intensity measurements, when comparing between two samples, statistical significance of differences was calculated by Mann-Whitney test for non-parametric distributions using GraphPad Prism software (v.9). When comparing among three or more samples, p values were calculated by Kruskal-Wallis test for non-parametric distributions with Dunn’s multiple comparisons using GraphPad Prism software (v.9). For RIF1 foci formation analysis (Fig. 6B), p values were calculated by two-tailed Student’s t test. For nuclear BRCA1 intensity fold change analyses (Fig. 6C, D), p values were calculated by two-tailed one-sample t test using GraphPad Prism software (v.9). For RAD51 foci formation analyses (Fig. 7B, E and Supplementary Fig. 7B), p values were calculated by chi-square test. For HR Reporter assay analysis (Fig. 7G and Supplementary Fig. 7L), p values were calculated by two-tailed paired Student’s t test. For micronuclei frequency analysis (Fig. 7H), p values were calculated by one-tailed paired Student’s t test. All Student’s t tests were performed with Excel T.TEST function. Chi-square tests were performed with the online Chi-square test calculator at https://www.socscistatistics.com/tests/chisquare2/default2.aspx. Sample number n for all box-and-whisker plots and dot plots are listed in Supplementary Data 1.

[3] = test system: RPA; assay: chromatin-bound RPA immunofluorescence, RPE-1 cells; details: HU 4 mM 24 h
Procedure: Cells were grown on glass coverslips and treated as desired. Cells were then permeabilized with 0.5% TritonX-100 in PBS for 7 min on ice, and fixed with 4% w/v formaldehyde solution (Sigma HT5012) for 10 min at room temperature (RT). After fixation, coverslips were blocked with 3% BSA in PBS (RT, 1 h), incubated with primary antibodies (RT, 2 h), washed with PBS three times and incubated with secondary antibodies (RT, 1 h). Primary antibodies used for immunofluorescence include anti-γH2A.X (20E3) (Cell Signalling Technology, 9718. 1:500); anti-RPA32/RPA2 (9H8) (Abcam, ab2175. 1:200); anti-RAD51 (H92) (Santa Cruz Biotechnology, sc-8349. 1:100); anti-BrdU (B44) (BD Biosciences, 347580. 1:100); Coverslips were then mounted on glass slides with mounting medium with DAPI. Images were captured by either standard (Zeiss Axio Imager) or confocal (Zeiss LSM-880) microscopy. Fluorescence signal intensities within each nucleus were analysed by CellProfiler software with custom-made pipelines. Co-localisation analyses were performed with custom-made CellProfiler pipelines. Briefly, nuclei were identified and used to create masks. […]

[4] = test system: micronuclei; assay: micronuclei frequency, HeLa cells; details: HeLa RIF1-L vs RIF1-S or RIF1-L-APKF; HU 4 mM 24 h
Procedure: as §1

[5] = Fig S4F (repeat of 4E), 0h post-HU
[6] = Fig S4F (repeat of 4E), 4h post-HU
[7] = Fig S4F (repeat of 4E), 8h post-HU

NC(=O)NO [HU, hydroxyurea]
colony survival, RIF1-L cells ([1]; HCT116 expressing only RIF1-L, versus RIF1-WT): RIF1-L conferred resistance comparable to RIF1-WT
colony survival, RIF1-S cells ([1]; HCT116 expressing only RIF1-S, versus RIF1-KO): exhibited hypersensitivity to these drugs similar to RIF1-KO cells
RIF1-BRCA1 proximity signal after HU removal ([2]; 4 h after HU removal): retained
RIF1-BRCA1 proximity signal after HU removal ([2]; 8 h post-release): declined to baseline level
RIF1-BRCA1 PLA foci per nucleus, mean ([2]; Fig 3B, HU 4 mM 3 h): 1.331
RIF1-BRCA1 PLA foci per nucleus, median ([2]; Fig 3B, HU 4 mM 3 h): 1
RIF1-BRCA1 PLA foci per nucleus, mean ([2]; Fig 3B, HU 24 h): 3.899
RIF1-BRCA1 PLA foci per nucleus, median ([2]; Fig 3B, HU 24 h): 3
RIF1-BRCA1 PLA foci per nucleus, mean ([2]; Fig 3C, HU 4 mM 24 h): 2.024
RIF1-BRCA1 PLA foci per nucleus, median ([2]; Fig 3C, HU 4 mM 24 h): 1
RIF1-BRCA1 PLA foci per nucleus, mean ([2]; Fig 4E, 0h post-HU): 1.913
RIF1-BRCA1 PLA foci per nucleus, median ([2]; Fig 4E, 0h post-HU): 1, 1, 1, 1
RIF1-BRCA1 PLA foci per nucleus, mean ([2]; Fig 4E, 4h post-HU): 1.712
RIF1-BRCA1 PLA foci per nucleus, median ([2]; Fig 4E, 4h post-HU): 1, 1, 1, 1
RIF1-BRCA1 PLA foci per nucleus, mean ([2]; Fig 4E, 8h post-HU): 0.946
RIF1-BRCA1 PLA foci per nucleus, median ([2]; Fig 4E, 8h post-HU): 1, 1, 1, 1
RIF1-BRCA1 PLA foci per nucleus, mean ([2]; Fig 4F, HU 4 mM 24 h): 7.107
RIF1-BRCA1 PLA foci per nucleus, median ([2]; Fig 4F, HU 4 mM 24 h): 5
RIF1-BRCA1 PLA foci per nucleus, mean [2, 5]: 0.786
RIF1-BRCA1 PLA foci per nucleus, median [2, 5]: 0, 0, 0, 0
RIF1-BRCA1 PLA foci per nucleus, mean [2, 6]: 0.617
RIF1-BRCA1 PLA foci per nucleus, median [2, 6]: 0, 0, 0, 0
RIF1-BRCA1 PLA foci per nucleus, mean [2, 7]: 0.355
RIF1-BRCA1 PLA foci per nucleus, median [2, 7]: 0, 0, 0, 0
RIF1-BRCA1 PLA foci per nucleus, mean ([2]; Fig S4G (repeat), HU 4mM 24hr): 7.828
RIF1-BRCA1 PLA foci per nucleus, median ([2]; Fig S4G (repeat), HU 4mM 24hr): 6
RIF1-BRCA1 PLA foci per nucleus, mean ([2]; Fig S4J, HU 4mM 24hr): 7.107
RIF1-BRCA1 PLA foci per nucleus, median ([2]; Fig S4J, HU 4mM 24hr): 0, 5, 5
RIF1-BRCA1 PLA foci ([2]; HU 3 h): observable
RIF1-BRCA1 PLA foci ([2]; HU 24 h): significantly increased
chromatin-bound RPA [3]: both increased upon HU treatment
frequency of micronuclei following HU [4]: RIF1-L cells exhibited a lower frequency of micronuclei following HU treatment than RIF1-S or RIF1-L-APKF cells
